Measurements published in ChEMBL document CHEMBL2177009, “The use of novel C-methylated spermidine derivatives to investigate the regulation of polyamine metabolism” (J Med Chem, 2011).
Values belong to the compound of their own block, whether it stands above or below them.

Key:
DU-145 [1] = experiment: Metabolic stability in N1,N11-diethyl-norspermine pretreated human DU145 cells expressing SSAT assessed as accumulation of acetylated derivatives of compound in medium at 100 uM after 48 hrs; format: ADME, cell-based; conditions: du-145, 48 h
DU-145 [2] = experiment: Metabolic stability in human DU145 cells assessed as intracellular compound/methylspermine level per ug DNA at 100 uM after 72 hrs in presence of serum amine oxidases inhibitor aminoguanidine; format: ADME, cell-based; conditions: du-145, 72 h
DU-145 [3] = experiment: Metabolic stability in human DU145 cells assessed as intracellular compound/methylspermine level per ug DNA at 100 uM after 48 hrs in presence of serum amine oxidases inhibitor aminoguanidine; format: ADME, cell-based; conditions: du-145, 48 h
DU-145 [4] = experiment: Metabolic stability in human DU145 cells assessed as intracellular compound/methylspermine level per ug DNA at 100 uM after 24 hrs in presence of serum amine oxidases inhibitor aminoguanidine; format: ADME, cell-based; conditions: du-145, 24 h
DU-145 [5] = experiment: Metabolic stability in human DU145 cells assessed as intracellular methylspermine level per ug DNA at 100 uM after 72 hrs in presence of serum amine oxidases inhibitor aminoguanidine; format: ADME, cell-based; conditions: du-145, 72 h
DU-145 [6] = experiment: Metabolic stability in human DU145 cells assessed as intracellular methylspermine level per ug DNA at 100 uM after 48 hrs in presence of serum amine oxidases inhibitor aminoguanidine; format: ADME, cell-based; conditions: du-145, 48 h
DU-145 [7] = experiment: Metabolic stability in human DU145 cells assessed as intracellular methylspermine level per ug DNA at 100 uM after 24 hrs in presence of serum amine oxidases inhibitor aminoguanidine; format: ADME, cell-based; conditions: du-145, 24 h
DU-145 [8] = experiment: Metabolic stability in human DU145 cells assessed as intracellular compound level per ug DNA at 100 uM after 72 hrs in presence of serum amine oxidases inhibitor aminoguanidine; format: ADME, cell-based; conditions: du-145, 72 h
DU-145 [9] = experiment: Metabolic stability in human DU145 cells assessed as intracellular compound level per ug DNA at 100 uM after 48 hrs in presence of serum amine oxidases inhibitor aminoguanidine; format: ADME, cell-based; conditions: du-145, 48 h
DU-145 [10] = experiment: Metabolic stability in human DU145 cells assessed as intracellular compound level per ug DNA at 100 uM after 24 hrs in presence of serum amine oxidases inhibitor aminoguanidine; format: ADME, cell-based; conditions: du-145, 24 h
[11] = Cytotoxicity against human DU145 cells assessed as cell growth at 100 uM after 72 hrs in presence of serum amine oxidase inhibitor aminoguanidine (RVb = 49 +/- 2 pmol/10^6 cells); format: cell-based, DU-145; conditions: read-out: Activity
DU-145 [12] = experiment: Effect on intracellular level of decarboxylated S-adenosyl-L-methionine in human DU145 cells assessed per million cells at 100 uM after 72 hrs in presence of serum amine oxidase inhibitor aminoguanidine and ODC inhibitor DFMO (RVb = 263 +/- 14 pmol/10^6 cells); format: functional
DU-145 [13] = experiment: Effect on intracellular level of S-adenosyl-Lmethionine in human DU145 cells assessed per million cells at 100 uM after 72 hrs in presence of serum amine oxidase inhibitor aminoguanidine and ODC inhibitor DFMO (RVb = 80 +/- 5 pmol/10^6 cells); format: functional
DU-145 [14] = experiment: Metabolic stability in human DU145 cells assessed as intracellular spermine level per ug DNA at 100 uM after 72 hrs in presence of serum amine oxidases inhibitor aminoguanidine (reference value: 154 +/- 7 pmol/ug DNA); format: ADME, cell-based; conditions: du-145, 72 h
DU-145 [15] = experiment: Metabolic stability in human DU145 cells assessed as intracellular spermine level per ug DNA at 100 uM after 48 hrs in presence of serum amine oxidases inhibitor aminoguanidine (reference value: 133 +/- 4 pmol/ug DNA); format: ADME, cell-based; conditions: du-145, 48 h
DU-145 [16] = experiment: Metabolic stability in human DU145 cells assessed as intracellular spermine level per ug DNA at 100 uM after 24 hrs in presence of serum amine oxidases inhibitor aminoguanidine (reference value: 122 +/- 11 pmol/ug DNA); format: ADME, cell-based; conditions: du-145, 24 h
DU-145 [17] = experiment: Metabolic stability in human DU145 cells assessed as intracellular spermidine level per ug DNA at 100 uM after 72 hrs in presence of serum amine oxidases inhibitor aminoguanidine (reference value: 137 +/- 3 pmol/ug DNA); format: ADME, cell-based; conditions: du-145, 72 h
DU-145 [18] = experiment: Metabolic stability in human DU145 cells assessed as intracellular spermidine level per ug DNA at 100 uM after 48 hrs in presence of serum amine oxidases inhibitor aminoguanidine (reference value: 137 +/- 5 pmol/ug DNA); format: ADME, cell-based; conditions: du-145, 48 h
DU-145 [19] = experiment: Metabolic stability in human DU145 cells assessed as intracellular spermidine level per ug DNA at 100 uM after 24 hrs in presence of serum amine oxidases inhibitor aminoguanidine (reference value: 154 +/- 7 pmol/ug DNA); format: ADME, cell-based; conditions: du-145, 24 h
DU-145 [20] = experiment: Metabolic stability of the compound in human DU145 cells assessed as metabolites-mediated cell toxicity at 10 uM after 48 hrs by MTT assay in presence of bovine serum amine oxidase; format: ADME, cell-based; conditions: du-145, 48 h
[21] = molecular target: T1, Peroxisomal N(1)-acetyl-spermine/spermidine oxidase (Homo sapiens, UniProt Q6QHF9); experiment: Metabolic stability of the compound assessed as human recombinant APAO-mediated compound degradation at 0.5 to 1 mM after 5 to 60 mins in presence of benzaldehyde; format: ADME; conditions: 1000 µM
DU-145 [22] = experiment: Metabolic stability in human DU145 cells assessed as intracellular putrescine level per ug DNA at 100 uM after 72 hrs in presence of serum amine oxidases inhibitor aminoguanidine (reference value: 6 pmol/ug DNA); format: ADME, cell-based; conditions: du-145, 72 h
DU-145 [23] = experiment: Metabolic stability in human DU145 cells assessed as intracellular putrescine level per ug DNA at 100 uM after 48 hrs in presence of serum amine oxidases inhibitor aminoguanidine (reference value: 7 +/- 1 pmol/ug DNA); format: ADME, cell-based; conditions: du-145, 48 h
DU-145 [24] = experiment: Metabolic stability in human DU145 cells assessed as intracellular putrescine level per ug DNA at 100 uM after 24 hrs in presence of serum amine oxidases inhibitor aminoguanidine (reference value: 11 +/- 2 pmol/ug DNA); format: ADME, cell-based; conditions: du-145, 24 h
[25] = molecular target: T1, Peroxisomal N(1)-acetyl-spermine/spermidine oxidase; experiment: Metabolic stability of the compound assessed as human recombinant APAO-mediated compound degradation at 0.5 to 1 mM after 5 to 60 mins; format: ADME; conditions: 1000 µM
DU-145 [26] = experiment: Metabolic stability in N1,N11-diethyl-norspermine pretreated human DU145 cells expressing SSAT assessed as intracellular accumulation of acetylated derivatives of compound at 100 uM after 48 hrs; format: ADME, cell-based; conditions: du-145, 48 h
DU-145 [27] = experiment: Metabolic stability in human DU145 cells assessed as intracellular Ac-8-Methylspermidine level per ug DNA at 100 uM after 72 hrs in presence of serum amine oxidases inhibitor aminoguanidine; format: ADME, cell-based; conditions: du-145, 72 h
DU-145 [28] = experiment: Metabolic stability in human DU145 cells assessed as intracellular Ac-8-Methylspermidine level per ug DNA at 100 uM after 48 hrs in presence of serum amine oxidases inhibitor aminoguanidine; format: ADME, cell-based; conditions: du-145, 48 h
DU-145 [29] = experiment: Metabolic stability in human DU145 cells assessed as intracellular Ac-8-Methylspermidine level per ug DNA at 100 uM after 24 hrs in presence of serum amine oxidases inhibitor aminoguanidine; format: ADME, cell-based; conditions: du-145, 24 h
DU-145 [30] = experiment: Metabolic stability of the compound in human DU145 cells assessed as compound metabolite-mediated cell toxicity at 100 uM after 48 hrs by MTT assay in presence of bovine serum amine oxidase; format: ADME, cell-based; conditions: du-145, 48 h
DU-145 [31] = experiment: Metabolic stability in human DU145 cells expressing SSAT assessed as accumulation of acetylated derivatives of compound in medium at 100 uM after 48 hrs; format: ADME, cell-based; conditions: du-145, 48 h

T1 sequence (Q6QHF9 whole entry): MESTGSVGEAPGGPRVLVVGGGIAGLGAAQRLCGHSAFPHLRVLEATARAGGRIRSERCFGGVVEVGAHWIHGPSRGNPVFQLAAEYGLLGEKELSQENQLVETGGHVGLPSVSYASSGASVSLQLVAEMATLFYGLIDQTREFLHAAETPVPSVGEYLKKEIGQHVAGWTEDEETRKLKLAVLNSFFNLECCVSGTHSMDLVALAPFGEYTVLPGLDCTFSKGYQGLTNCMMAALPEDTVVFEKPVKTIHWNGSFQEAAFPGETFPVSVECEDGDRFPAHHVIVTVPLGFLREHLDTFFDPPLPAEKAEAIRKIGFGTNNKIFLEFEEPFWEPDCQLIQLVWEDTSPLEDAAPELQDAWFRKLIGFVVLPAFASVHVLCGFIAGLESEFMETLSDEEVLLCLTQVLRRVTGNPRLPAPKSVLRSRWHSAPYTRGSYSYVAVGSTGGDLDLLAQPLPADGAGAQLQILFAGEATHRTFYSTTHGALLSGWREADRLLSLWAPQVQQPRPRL

Stability (DU-145 [1]): Unstable
SMILES: CC(=O)NCCCNCCCCN

Stability [21]: Unstable
Stability (DU-145 [1]): Unstable
SMILES: NCCCCNCCCN [SPERMIDINE]
viability at 72 h, 100 µM [11]: 89%
Activity (DU-145 [12]): <5 pmol
Activity (DU-145 [13]): 126 pmol
Stability (DU-145 [30]): Unstable
Stability (DU-145 [20]): Stable

Second part, the compound before the results:

SMILES: C[C@H](N)CCNCCCCN
Drug metabolism (DU-145 [2]): 371 pmol
Drug metabolism (DU-145 [3]): 283 pmol
Drug metabolism (DU-145 [4]): 301 pmol
Drug metabolism (DU-145 [5]): 60 pmol
Drug metabolism (DU-145 [6]): 44 pmol
Drug metabolism (DU-145 [7]): 37 pmol
Drug metabolism (DU-145 [8]): 311 pmol
Drug metabolism (DU-145 [9]): 239 pmol
Drug metabolism (DU-145 [10]): 264 pmol
viability at 72 h, 100 µM [11]: 84%
Activity (DU-145 [12]): 49 pmol
Activity (DU-145 [13]): 177 pmol
Drug metabolism (DU-145 [14]): 74 pmol
Drug metabolism (DU-145 [15]): 55 pmol
Drug metabolism (DU-145 [16]): 62 pmol
Drug metabolism (DU-145 [17]): 16 pmol
Drug metabolism (DU-145 [18]): 11 pmol/ug DNA
Drug metabolism (DU-145 [19]): 15 pmol/ug DNA
Stability (DU-145 [20]): Stable
Stability [21]: Unstable
Stability (DU-145 [1]): Unstable

SMILES: CC(CN)CNCCCCN.Cl (stereo not given)
Drug metabolism (DU-145 [2]): 214 pmol
Drug metabolism (DU-145 [3]): 202 pmol
Drug metabolism (DU-145 [4]): 200 pmol
Drug metabolism (DU-145 [5]): 80 pmol
Drug metabolism (DU-145 [6]): 77 pmol
Drug metabolism (DU-145 [7]): 67 pmol
Drug metabolism (DU-145 [8]): 134 pmol
Drug metabolism (DU-145 [9]): 135 pmol
Drug metabolism (DU-145 [10]): 133 pmol
viability at 72 h, 100 µM [11]: 86%
Activity (DU-145 [12]): <5 pmol
Activity (DU-145 [13]): 148 pmol
Drug metabolism (DU-145 [14]): 75 pmol
Drug metabolism (DU-145 [15]): 72 pmol
Drug metabolism (DU-145 [16]): 67 pmol
Drug metabolism (DU-145 [17]): 38 pmol
Drug metabolism (DU-145 [18]): 38 pmol/ug DNA
Drug metabolism (DU-145 [19]): 39 pmol/ug DNA
Drug metabolism (DU-145 [22]): < 5 pmol
Drug metabolism (DU-145 [23]): < 5 pmol
Drug metabolism (DU-145 [24]): < 5 pmol
Stability (DU-145 [20]): Stable
Stability [25]: Unstable
Stability [21]: Unstable
Stability (DU-145 [1]): Unstable
Stability (DU-145 [26]): Unstable

SMILES: CC(CCN)NCCCCN.Cl (stereo not given)
Drug metabolism (DU-145 [2]): 176 pmol
Drug metabolism (DU-145 [3]): 168 pmol
Drug metabolism (DU-145 [4]): 181 pmol
Drug metabolism (DU-145 [8]): 176 pmol
Drug metabolism (DU-145 [9]): 168 pmol
Drug metabolism (DU-145 [10]): 181 pmol
viability at 72 h, 100 µM [11]: 91%
Activity (DU-145 [12]): 109 pmol
Activity (DU-145 [13]): 149 pmol
Drug metabolism (DU-145 [14]): 115 pmol
Drug metabolism (DU-145 [15]): 103 pmol
Drug metabolism (DU-145 [16]): 92 pmol
Drug metabolism (DU-145 [17]): 22 pmol
Drug metabolism (DU-145 [18]): 18 pmol/ug DNA
Drug metabolism (DU-145 [19]): 23 pmol/ug DNA
Drug metabolism (DU-145 [24]): < 5 pmol
Stability (DU-145 [20]): Stable
Stability [21]: Stable
Stability (DU-145 [1]): Unstable

SMILES: CC(N)CCCNCCCN (stereo not given)
Drug metabolism (DU-145 [2]): 375 pmol
Drug metabolism (DU-145 [3]): 326 pmol
Drug metabolism (DU-145 [4]): 257 pmol
Drug metabolism (DU-145 [5]): 43 pmol
Drug metabolism (DU-145 [6]): 39 pmol
Drug metabolism (DU-145 [8]): 332 pmol
Drug metabolism (DU-145 [9]): 287 pmol
Drug metabolism (DU-145 [10]): 257 pmol
Drug metabolism (DU-145 [27]): 4 pmol
Drug metabolism (DU-145 [28]): 7 pmol
Drug metabolism (DU-145 [29]): 15 pmol
viability at 72 h, 100 µM [11]: 93%
Activity (DU-145 [12]): 60 pmol
Activity (DU-145 [13]): 138 pmol
Drug metabolism (DU-145 [14]): 70 pmol
Drug metabolism (DU-145 [15]): 57 pmol
Drug metabolism (DU-145 [16]): 83 pmol
Drug metabolism (DU-145 [17]): 20 pmol
Drug metabolism (DU-145 [18]): 18 pmol/ug DNA
Drug metabolism (DU-145 [19]): 30 pmol/ug DNA
Stability (DU-145 [30]): Unstable
Stability (DU-145 [20]): Stable
Stability (DU-145 [31]): Unstable
Stability [21]: Unstable
Stability (DU-145 [1]): Unstable
Stability (DU-145 [26]): Unstable
